Experimental data as given in PMC9673926, “Nucleotide binding as an allosteric regulatory mechanism for Akkermansia muciniphila β-N-acetylhexosaminidase Am2136” (Gut Microbes, 2022).

Key:
[1] = target: T1, Am2136 WT (Akkermansia muciniphila, UniProt B2UPR7); experiment: Nucleotide binding affinity by intrinsic fluorescence; conditions: WT dialyzed
T1 construct: The coding region (residue Q20-L756) of Am2136 without signal peptide was based on UniProt; 6XHis (N); made in house; host or cells: E. coli BL21 (DE3)
Protocol: The nucleotide binding ability was determined on Fluorescence Spectrometer Duetta (HORIBA) by measuring the change of peak intensity. The fluorescence was excited at 286 nm and emitted at 336 nm. And the measurement was processed under 400 V voltage with 2.5 nm excitation slit and 5 nm emission slit. […] The sample was incubated at 4°C for 5 min before testing.

[2] = target: T2, Am2136 WT dialyzed (Akkermansia muciniphila, UniProt B2UPR7); experiment: Metal ion effect on enzyme hydrolysis activity; type: biochemical; conditions: for Vmax / kcat/Km: WT dialyzed + 2 mM metal ion, substrate pNP-β-GlcNAc; for effect of metal ion on Am2136 catalytic activity: 2 mM metal ion
T2 construct: The coding region (residue Q20-L756) of Am2136 without signal peptide was based on UniProt; 6XHis (N); made in house; host or cells: E. coli BL21 (DE3)
Protocol: The purified protein was added with the final concentration of 5 mM EDTA and incubated on ice for 20 min. Then the protein was dialyzed with the buffer solution (2 mM EDTA, 25 mM Tris, 150 mM NaCl, 5% Glycerol, pH 8.0) at 4°C for 4 h at a volume ratio of 1:350. After that, the protein was dialyzed with the EDTA-free buffer for 4 h and repeated twice.
The dialyzed protein was incubated with other metal ions on ice for 5 min. The 50 μL reaction mixture contains 2 μM protein, 0.125–4 mM p-nitrophenyl (pNP)-β-GlcNAc, 2 mM metal ions (MgCl2, CaCl2, CuCl2, ZnCl2, CoCl2), 25 mM Tris pH 8.0 and 150 mM NaCl.

[3] = target: T3, Am2136 (Akkermansia muciniphila, UniProt B2UPR7); experiment: Oligosaccharide hydrolysis, released GlcNAc by HPLC-QqQ-MS; type: biochemical; conditions: 1.2 mM substrate, 4 μM Am2136, 37°C, 240 min
T3 construct: The coding region (residue Q20-L756) of Am2136 without signal peptide was based on UniProt; 6XHis (N); made in house; host or cells: E. coli BL21 (DE3)
Protocol: The 30 μL reaction mixture contains 1.2 mM oligosaccharides (Sigma), 4 μM proteins, 150 mM NH4Ac pH 8.0. The qualitative and quantitative analyses were performed by high-performance liquid chromatography-tandem triple quadrupole mass spectrometry (HPLC-QqQ-MS) (Agilent 1260 HPLC system and 6460 QqQ system, Agilent Technologies, USA). The separation was performed on a Chromplus C18 column (4.6 × 250 mm, 5 μm) at 25°C. The samples were isocratic eluted with 0.1% formic acid in water and acetonitrile (80:20, v/v) at a flow rate of 0.5 mL/min with an injection volume of 5 μL. The mass spectrometer was operated in the electron spray ionization mode with drying gas temperature of 300°C, N2 gas flow at 11 L/min, nebulizer pressure of 15 psi, and capillary voltage of 4000 V.
Qualitative analysis was carried out by MS2 full-scan mode, while quantitative analysis was performed by multiple reaction monitoring (MRM) in positive ionization mode. Amygdalin (IS) was used as internal standard, and the sample was prepared by adding 20 μL internal standard (116.96 μM) and 170 μL water to 10 μL reaction mixture. The ion transitions were chosen as m/z 222.0→203.9 for GlcNAc and m/z 458.1→296.0 for IS. The fragmentor voltage values of GlcNAc and IS were set to 70 and 130 V, respectively. The collision energies of GlcNAc and IS were set to 1 and 10 eV, respectively. The signal acquisition and peak integration were performed using the MassHunter Qualitative Analysis Software (Agilent, USA). The concentration of GlcNAc in each sample was determined by using the established calibration curve (y = 0.768x + 2.4873) made from the standard compound.

T2 sequence (B2UPR7 20-756): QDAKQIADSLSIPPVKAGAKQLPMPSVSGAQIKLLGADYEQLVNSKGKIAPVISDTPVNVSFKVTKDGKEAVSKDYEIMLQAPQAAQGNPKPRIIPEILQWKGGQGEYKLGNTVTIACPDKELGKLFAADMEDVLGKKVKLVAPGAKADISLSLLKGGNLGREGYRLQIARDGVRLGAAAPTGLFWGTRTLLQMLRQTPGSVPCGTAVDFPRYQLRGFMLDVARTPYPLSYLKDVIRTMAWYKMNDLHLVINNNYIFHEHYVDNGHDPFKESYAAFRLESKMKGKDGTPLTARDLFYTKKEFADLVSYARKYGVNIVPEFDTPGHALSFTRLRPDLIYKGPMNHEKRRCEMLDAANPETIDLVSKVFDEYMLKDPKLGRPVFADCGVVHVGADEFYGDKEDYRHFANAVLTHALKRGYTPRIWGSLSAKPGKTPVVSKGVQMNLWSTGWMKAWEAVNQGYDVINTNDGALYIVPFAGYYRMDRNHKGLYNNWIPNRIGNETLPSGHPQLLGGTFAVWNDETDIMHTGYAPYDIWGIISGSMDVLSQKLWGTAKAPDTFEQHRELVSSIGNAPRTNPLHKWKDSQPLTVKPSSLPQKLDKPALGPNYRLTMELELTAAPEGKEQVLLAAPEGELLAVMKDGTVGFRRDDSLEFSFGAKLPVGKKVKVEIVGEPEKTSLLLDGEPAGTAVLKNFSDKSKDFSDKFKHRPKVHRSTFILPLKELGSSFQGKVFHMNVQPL
T3 sequence (B2UPR7 20-756): as above
T1 sequence (B2UPR7 20-756): as above

Structure (SMILES) | effect of metal ion on Am2136 catalytic activity [2] | GlcNAc released ([3]; with 1 mM GDP) [µM] | GlcNAc released ([3]; without GDP) [µM] | other results
[Ca+2].[Cl-].[Cl-] [Ca^2+, CaCl2] |  |  |  | effect of ion on GDP binding to Am2136 [1]: did not exhibit obvious behavioral effect on GDP binding; Vmax [2]: 447 ± 14 µmol/min; kcat/Km [2]: 128000 ± 2000 M⁻¹ s⁻¹
[Cl-].[Cl-].[Co+2] [Co^2+, CoCl2] | significant inhibitory effects |  |  | 
[Cl][Cu][Cl] [Cu^2+, CuCl2] | significant inhibitory effects |  |  | 
CC(=O)N[C@H]1[C@H](OC[C@H]2O[C@@H](O[C@H]3[C@H](O)[C@@H](O)C(O)O[C@@H]3CO)[C@H](O)[C@@H](O)[C@H]2O)O[C@H](CO)[C@@H](O)[C@@H]1O (stereo partly drawn) [GlcNAc-(β1,6)Gal-(β1,4)Glc] |  | 712.55 | 549 | 
CC(=O)N[C@H]1[C@@H](Oc2ccc([N+](=O)[O-])cc2)O[C@H](CO[C@@H]2O[C@H](CO)[C@@H](O)[C@H](O)[C@H]2NC(C)=O)[C@H](O)[C@@H]1O [GlcNAc-(β1,6)GalNAc-α-pNP] |  | 451.25 | 308 | 
COC1O[C@H](CO)[C@H](O)[C@H](O[C@@H]2O[C@H](CO)[C@@H](O)[C@H](O)[C@H]2NC(C)=O)[C@H]1O (stereo partly drawn) [Methyl GlcNAc-(β1,3)Gal] |  | 610.53 | 448 | 
[Cl-].[Cl-].[Mg+2] [Mg^2+, MgCl2] |  |  |  | effect of ion on GDP binding to Am2136 [1]: did not exhibit obvious behavioral effect on GDP binding; Vmax [2]: 435 ± 9 µmol/min; kcat/Km [2]: 151000 ± 3000 M⁻¹ s⁻¹
[Cl-].[Cl-].[Zn+2] [Zn^2+, ZnCl2] | significant inhibitory effects |  |  | 
